Assays:
Assay type in all cases: cell-based
Pseudomonas aeruginosa = assay: Impedimetric MIC / detection time, growing cells in TSB (Bactometer); set-up: key: n.e.: not effective; details: Table 4, strain printed as Pseudomonas aeroginosa; determined as in Example 1 (inhibition of at least 100 hours); n.e. = not effective
Description: (§1) Volumes (1.0 ml) of TSB medium were added to Bactometer® wells. Protamine solutions (0.1 ml) were transferred to the wells which were sealed, connected to the Bactometer B123-2 (bioMérieux UK ltd., UK) and incubated at 25°C until a significant detectable increase in the electrical conductivity of the medium was registered and the detection time (DT) was recorded (maximum 100 h). Detection usually occurs when the cell concentration reaches 10^6-10^7 cfu/ml. For the Gram-positive strains the capacitance signal was monitored, while change in conductance was used for Gram-negative strains.
(§2) was measured in the Bactometer modules. The wells (containing 1 ml TSB and 0.1 ml protamine solution) were inoculated with 0.1 ml from a 10^-4 dilution of an inoculum culture, giving a final cell concentration in the well of approximately 10^3 cfu/ml. The concentration of protamine varied from 1 to 4000 µg/ml depending on the sensitivity of the strain investigated.
(§3) Minimum Inhibition Concentration (MIC) was determined as the lowest concentration of protamine resulting in absence of a DT.
(§4) When no DT was measured, the lethal/inhibitory effect on the cells were tested by plating the total well volume.
(§5) The minimum inhibition concentration (MIC) of various-substances was determined as described in Example 1. […]

Pseudomonas fluorescens [1] = assay: as above; set-up: key: n.e.: not effective; details: Table 4, determined as in Example 1 (inhibition of at least 100 hours); n.e. = not effective
Description: as §1, §2, §3, §4, §5

Escherichia coli 0157:H7 = assay: as above; details: Table 4, strain printed as Escherichia coli; determined as in Example 1 (inhibition of at least 100 hours); n.e. = not effective
Description: as §1, §2, §3, §4
(§6) The minimum inhibition concentration (MIC) of various-substances was determined as described in Example 1.
(§7) The following substances were tested: protamine (A), protamine sulphate (B), a peroxidase enzyme system (i.e. lactoperoxidase/glucoseoxidase (C)), subtilisin A (D), polyarginine (E) having an average molecular weight of about 6 kD and lysozyme (F) (150 000 units/mg; Johansen, C. et al., 1994).

Staphylococcus aureus = assay: as above; details: Table 4, determined as in Example 1 (inhibition of at least 100 hours); n.e. = not effective
Description: as §1, §2, §3, §4, §6, §7

Vibrio paraheamolyticus = assay: as above; details: Table 4, determined as in Example 1 (inhibition of at least 100 hours); n.e. = not effective
Description: as §1, §2, §3, §4, §6, §7

Listeria monocytogenes = assay: as above; details: Table 4, determined as in Example 1 (inhibition of at least 100 hours); n.e. = not effective
Description: as §1
(§8) was measured in the Bactometer modules. […]
as §3, §4, §5
(§9) Further, the influence of cell concentration on the anti-bacterial effect of protamine was tested using the materials and methods described in Example 1, i.e.the correlation between cell concentration and protamine concentration has been measured by the impedimetric assay.

Shewanella putrefaciens = assay: as above; details: Table 4, determined as in Example 1 (inhibition of at least 100 hours); n.e. = not effective
Description: as §1, §8, §3, §4, §5, §9

all the tested strains = assay: Comparative impedimetric MIC, all tested strains of Table 4; details: summary of Table 4
Description: as §6, §7

Pseudomonas fluorescens [2] = assay: Synergy growth inhibition experiments, impedimetric, factorial design; details: each alone: protamine 250 µg/ml, polylysine 500 µg/ml, lactoperoxidase 2 U/ml, glucose oxidase 2 U/ml
Description: Impedimetric measurements carried out as described in example 1 have shown an synergistic effect between basic peptides as protamine, polyarginine or polylysine and lysozyme and/or glucose oxidase and/or the lactoperoxidase enzyme system depending on pH and NaCl concentration.
Growth inhibition experiments were conducted, wherein synergistic and additional effects were determined by mixing compounds in low concentrations not having any activity on their own and using a factoral design. The effects were measured as growth inhibition or a 100% bacteriocidal effect with a total kill of the inoculum.

Substance	Minimum Inhibitory Concentration (Pseudomonas aeruginosa)	Minimum Inhibitory Concentration (Pseudomonas fluorescens [1])	Minimum Inhibitory Concentration (Escherichia coli 0157:H7) [µg/mL]	Minimum Inhibitory Concentration (Staphylococcus aureus) [µg/mL]	Minimum Inhibitory Concentration (Vibrio paraheamolyticus) [µg/mL]	Minimum Inhibitory Concentration (Listeria monocytogenes) [µg/mL]	Minimum Inhibitory Concentration (Shewanella putrefaciens) [µg/mL]	effectiveness for inhibiting the tested strains (all the tested strains)	growth inhibition, compound alone (Pseudomonas fluorescens [2])
polyarginine	n.e.	n.e.	1500	1500	2000	2000	1500	effective for inhibiting all strains but Pseudomonas spp.	–
polylysine	–	–	–	–	–	–	–	–	not inhibited
